Laboratory results published in patent EP0550016A1, “Novel quinolone carboxylic acid derivatives and processes for preparing same” (KOREA RESEARCH INSTITUTE OF CHEMICAL TECHNOLOGY, priority 1991, dated 1993).
≈ marks a conversion by molar mass, not a printed value. Read-outs that look alike come from different tables or passages of the source.

What was measured:
[1] = system: Staphylococcus aureus 208 E; test: In vitro anti-bacterial activity test (MIC, two-fold dilution method), Table 2 strains; format: cell-based
[2] = system: Staphylococcus aureus 694 E; test: as above; format: cell-based
Escherichia coli DC 0 [3] = test: In vitro anti-bacterial activity test (MIC, two-fold dilution method) against the standard strains; format: cell-based; settings: DC0; Table 1 strain 7: Escherichia coli DC 0
[4] = system: Klebsiella aerogenes 1082 E; test: as above; format: cell-based; settings: Table 1 strain 17: Klebsiella aerogenes 1082 E
[5] = system: Streptococcus faecium MD 8b; test: as above; format: cell-based; settings: Enterococcus faecium, MD8B
[6] = system: Streptococcus pyogenes 77 A; test: as above; format: cell-based
Escherichia coli OTEM = test: as above; format: cell-based; settings: Table 1 strain 10: Escherichia coli OTEM
[7] = system: Staphylococcus aureus 503; test: as above; format: cell-based
[8] = system: Staphylococcus aureus 705 E; test: In vitro anti-bacterial activity test (MIC, two-fold dilution method), Table 2 strains; format: cell-based
[9] = system: Staphylococcus aureus 121 E; test: as above; format: cell-based
[10] = system: Staphylococcus aureus 697 E; test: as above; format: cell-based; settings: Table 2 strain 10: Staphylococcus aureus 697 E
S. aureus 17740 = test: Preventive effect against the systemic infection; format: in vivo; settings: Staphylococcus aureus, 168 h, NMRI mice, survival on day 7, read-out: ED₅₀
Description: (§1) 10 fold of the pathogen which leads to 100% lethality were injected intraperitoneally to male and female NMRI mice weighing 18 to 20g. Immediately and after 4 hours, the dose of test compounds which was determined by two-fold serial dilution method was administered orally or subcutaneously; and on day 7, the effectiveness was evaluated in terms of ED₅₀ calculated from the number of survived mice by the probit analysis.

P. mirabilis = test: Preventive effect against the systemic infection; format: in vivo; settings: Proteus mirabilis, 168 h, NMRI mice, survival on day 7, read-out: ED₅₀
Description: as §1

[11] = system: Staphylococcus aureus 703 E; test: In vitro anti-bacterial activity test (MIC, two-fold dilution method), Table 2 strains; format: cell-based
[12] = system: Staphylococcus aureus 690 E; test: as above; format: cell-based
[13] = system: Staphylococcus aureus 706 E; test: as above; format: cell-based
[14] = system: Staphylococcus aureus 714 E; test: as above; format: cell-based
[15] = system: Staphylococcus aureus 695 E; test: as above; format: cell-based
[16] = system: Pseudomonas aeruginosa 1771; test: In vitro anti-bacterial activity test (MIC, two-fold dilution method) against the standard strains; format: cell-based; settings: Table 1 strain 14: Pseudomonas aeruginosa 1771
[17] = system: Staphylococcus aureus 701 E; test: In vitro anti-bacterial activity test (MIC, two-fold dilution method), Table 2 strains; format: cell-based
Escherichia coli 1507 E = test: In vitro anti-bacterial activity test (MIC, two-fold dilution method) against the standard strains; format: cell-based; settings: Table 1 strain 11: Escherichia coli 1507 E
[18] = system: Staphylococcus aureus 88 E; test: In vitro anti-bacterial activity test (MIC, two-fold dilution method), Table 2 strains; format: cell-based; settings: Table 2 strain 1: Staphylococcus aureus 88 E
[19] = system: Staphylococcus aureus 693 E; test: as above; format: cell-based
[20] = system: Staphylococcus aureus SG 511; test: In vitro anti-bacterial activity test (MIC, two-fold dilution method) against the standard strains; format: cell-based; settings: SG511; Table 1 strain 4: Staphylococcus aureus SG 511
[21] = system: Streptococcus pyogenes 308 A; test: as above; format: cell-based; settings: Table 1 strain 1: Streptococcus pyogenes 308 A
Escherichia coli DC 2 = test: as above; format: cell-based; settings: DC2; Table 1 strain 9: Escherichia coli DC 2; read-out: MIC
[22] = system: Staphylococcus aureus 707 E; test: In vitro anti-bacterial activity test (MIC, two-fold dilution method), Table 2 strains; format: cell-based
[23] = system: Staphylococcus aureus 725 E; test: as above; format: cell-based
[24] = system: Staphylococcus aureus 285; test: In vitro anti-bacterial activity test (MIC, two-fold dilution method) against the standard strains; format: cell-based
[25] = system: Pseudomonas aeruginosa 1771 M; test: as above; format: cell-based; settings: Table 1 strain 15: Pseudomonas aeruginosa 1771 M
[26] = system: Staphylococcus aureus 692 E; test: In vitro anti-bacterial activity test (MIC, two-fold dilution method), Table 2 strains; format: cell-based; settings: Table 2 strain 6: Staphylococcus aureus 692 E
[27] = system: Staphylococcus aureus 256 E; test: as above; format: cell-based; settings: Table 2 strain 4: Staphylococcus aureus 256 E
[28] = system: Staphylococcus aureus 711 E; test: as above; format: cell-based
[29] = system: Staphylococcus aureus 708 E; test: as above; format: cell-based; settings: Table 2 strain 16: Staphylococcus aureus 708 E
[30] = system: Pseudomonas aeruginosa 1592 E; test: In vitro anti-bacterial activity test (MIC, two-fold dilution method) against the standard strains; format: cell-based; settings: Table 1 strain 13: Pseudomonas aeruginosa 1592 E
Escherichia coli DC 0 [31] = test: as above; format: cell-based; settings: DC0; Table 1 strain 8: Escherichia coli DC 0
[32] = system: Pseudomonas aeruginosa 9027; test: as above; format: cell-based; settings: Table 1 strain 12: Pseudomonas aeruginosa 9027
[33] = system: Enterobacter cloacae P 99; test: as above; format: cell-based; settings: P99; Table 1 strain 19: Enterobacter cloacae P 99
Salmonella typhimurium = test: as above; format: cell-based; settings: Salmonella enterica; Table 1 strain 16: Salmonella typhimurium
[34] = system: Enterobacter cloacae 1321 E; test: as above; format: cell-based; settings: Table 1 strain 20: Enterobacter cloacae 1321 E
[35] = system: Klebsiella aerogenes 1522 E; test: as above; format: cell-based; settings: Table 1 strain 18: Klebsiella aerogenes 1522 E

## O=C(O)c1cn(C2CC2)c2cc(N3CCNCC3)c(F)cc2c1=O [Ciprofloxacin, ciprofloxacin, reference compound]
[1]; Staphylococcus aureus, 208E
  MIC: 0.781 µg/mL (≈ 2.36 µM)
[2]; Staphylococcus aureus, 694E
  MIC: 0.781 µg/mL (≈ 2.36 µM)
Escherichia coli DC 0 [3]
  MIC: 0.002 µg/mL (≈ 0.00604 µM)
[4]
  MIC: 0.007 µg/mL (≈ 0.0211 µM)
[5]
  MIC: 0.781 µg/mL (≈ 2.36 µM)
[6]; Streptococcus pyogenes, 77A
  MIC: 0.781 µg/mL (≈ 2.36 µM)
Escherichia coli OTEM
  MIC: 0.007 µg/mL (≈ 0.0211 µM)
[7]; Staphylococcus aureus, 503
  MIC: 0.781 µg/mL (≈ 2.36 µM)
[8]; Staphylococcus aureus, 705E
  MIC: 0.781 µg/mL (≈ 2.36 µM)
[9]; Staphylococcus aureus, 121E
  MIC: 0.781 µg/mL (≈ 2.36 µM)
[10]
  MIC: 0.391 µg/mL (≈ 1.18 µM)
S. aureus 17740; Oral Administration
  ED50: > 200 mg/kg
P. mirabilis; Oral Administration
  ED50: 0.82 mg/kg
P. mirabilis; sc, Subcutaneous Injection
  ED50: 0.16 mg/kg
[11]; Staphylococcus aureus, 703E
  MIC: 0.781 µg/mL (≈ 2.36 µM)
[12]; Staphylococcus aureus, 690E
  MIC: 0.781 µg/mL (≈ 2.36 µM)
[13]; Staphylococcus aureus, 706E
  MIC: 0.781 µg/mL (≈ 2.36 µM)
[14]; Staphylococcus aureus, 714E
  MIC: 0.781 µg/mL (≈ 2.36 µM)
[15]; Staphylococcus aureus, 695E
  MIC: 0.781 µg/mL (≈ 2.36 µM)
[16]
  MIC: 0.391 µg/mL (≈ 1.18 µM)
[17]; Staphylococcus aureus, 701E
  MIC: 0.781 µg/mL (≈ 2.36 µM)
Escherichia coli 1507 E
  MIC: 0.007 µg/mL (≈ 0.0211 µM)
[18]
  MIC: 1.56 µg/mL (≈ 4.72 µM)
[19]; Staphylococcus aureus, 693E
  MIC: 0.781 µg/mL (≈ 2.36 µM)
[20]
  MIC: 0.195 µg/mL (≈ 0.589 µM)
[21]
  MIC: 3.12 µg/mL (≈ 9.43 µM)
Escherichia coli DC 2
  MIC: 0.195 µg/mL (≈ 0.589 µM)
[22]; Staphylococcus aureus, 707E
  MIC: 0.781 µg/mL (≈ 2.36 µM)
[23]; Staphylococcus aureus, 725E
  MIC: 0.781 µg/mL (≈ 2.36 µM)
[24]; Staphylococcus aureus, 285
  MIC: 0.781 µg/mL (≈ 2.36 µM)
[25]
  MIC: 0.098 µg/mL (≈ 0.296 µM)
[26]
  MIC: 0.391 µg/mL (≈ 1.18 µM)
[27]
  MIC: 1.56 µg/mL (≈ 4.72 µM)
[28]; Staphylococcus aureus, 711E
  MIC: 0.781 µg/mL (≈ 2.36 µM)
[29]
  MIC: 0.195 µg/mL (≈ 0.589 µM)
[30]
  MIC: 0.391 µg/mL (≈ 1.18 µM)
Escherichia coli DC 0 [31]
  MIC: 0.391 µg/mL (≈ 1.18 µM)
[32]
  MIC: 0.391 µg/mL (≈ 1.18 µM)

## CC1COc2c(N3CCN(C)CC3)c(F)cc3c(=O)c(C(=O)O)cn1c23 (stereo not drawn) [Ofloxacin, ofloxacin, reference compound]
[33]
  MIC: 0.025 µg/mL (≈ 0.0692 µM)
[1]; Table 2 strain 3: Staphylococcus aureus 208 E, read-out: MIC
  MIC: 0.781 µg/mL (≈ 2.16 µM)
[2]; Table 2 strain 8: Staphylococcus aureus 694 E, read-out: MIC
  MIC: 0.781 µg/mL (≈ 2.16 µM)
Escherichia coli DC 0 [3]
  MIC: 0.013 µg/mL (≈ 0.036 µM)
[4]
  MIC: < 0.002 µg/mL
[5]; Table 1 strain 3: Streptococcus faecium MD 8b, read-out: MIC
  MIC: 0.781 µg/mL (≈ 2.16 µM)
[6]; Table 1 strain 2: Streptococcus pyogenes 77 A, read-out: MIC
  MIC: 1.56 µg/mL (≈ 4.33 µM)
Escherichia coli OTEM
  MIC: 0.049 µg/mL (≈ 0.136 µM)
[7]; Table 1 strain 6: Staphylococcus aureus 503, read-out: MIC
  MIC: 0.391 µg/mL (≈ 1.08 µM)
Salmonella typhimurium
  MIC: 0.025 µg/mL (≈ 0.0692 µM)
[34]
  MIC: 0.013 µg/mL (≈ 0.036 µM)
[8]; Table 2 strain 13: Staphylococcus aureus 705 E, read-out: MIC
  MIC: 0.781 µg/mL (≈ 2.16 µM)
[9]; Table 2 strain 2: Staphylococcus aureus 121 E, read-out: MIC
  MIC: 0.781 µg/mL (≈ 2.16 µM)
[10]
  MIC: 0.391 µg/mL (≈ 1.08 µM)
S. aureus 17740; Oral Administration
  ED50: > 200 mg/kg
S. aureus 17740; sc, Subcutaneous Injection
  ED50: 200 mg/kg
P. mirabilis; Oral Administration
  ED50: 2.21 mg/kg
P. mirabilis; sc, Subcutaneous Injection
  ED50: 0.33 mg/kg
[11]; Table 2 strain 12: Staphylococcus aureus 703 E, read-out: MIC
  MIC: 0.781 µg/mL (≈ 2.16 µM)
[12]; Table 2 strain 5: Staphylococcus aureus 690 E, read-out: MIC
  MIC: 0.391 µg/mL (≈ 1.08 µM)
[13]; Table 2 strain 14: Staphylococcus aureus 706 E, read-out: MIC
  MIC: 0.781 µg/mL (≈ 2.16 µM)
[14]; Table 2 strain 18: Staphylococcus aureus 714 E, read-out: MIC
  MIC: 0.391 µg/mL (≈ 1.08 µM)
[15]; Table 2 strain 9: Staphylococcus aureus 695 E, read-out: MIC
  MIC: 0.391 µg/mL (≈ 1.08 µM)
[16]
  MIC: 1.56 µg/mL (≈ 4.33 µM)
[17]; Table 2 strain 11: Staphylococcus aureus 701 E, read-out: MIC
  MIC: 0.781 µg/mL (≈ 2.16 µM)
Escherichia coli 1507 E
  MIC: 0.049 µg/mL (≈ 0.136 µM)
[18]
  MIC: 0.781 µg/mL (≈ 2.16 µM)
[19]; Table 2 strain 7: Staphylococcus aureus 693 E, read-out: MIC
  MIC: 0.391 µg/mL (≈ 1.08 µM)
[20]
  MIC: 0.195 µg/mL (≈ 0.54 µM)
[21]
  MIC: 3.12 µg/mL (≈ 8.65 µM)
Escherichia coli DC 2
  MIC: 0.195 µg/mL (≈ 0.54 µM)
[35]
  MIC: 0.049 µg/mL (≈ 0.136 µM)
[22]; Table 2 strain 15: Staphylococcus aureus 707 E, read-out: MIC
  MIC: 0.781 µg/mL (≈ 2.16 µM)
[23]; Table 2 strain 19: Staphylococcus aureus 725 E, read-out: MIC
  MIC: 0.391 µg/mL (≈ 1.08 µM)
[24]; Table 1 strain 5: Staphylococcus aureus 285, read-out: MIC
  MIC: 0.391 µg/mL (≈ 1.08 µM)
[25]
  MIC: 0.391 µg/mL (≈ 1.08 µM)
[26]
  MIC: 0.391 µg/mL (≈ 1.08 µM)
[27]
  MIC: 0.781 µg/mL (≈ 2.16 µM)
[28]; Table 2 strain 17: Staphylococcus aureus 711 E, read-out: MIC
  MIC: 0.391 µg/mL (≈ 1.08 µM)
[29]
  MIC: 0.195 µg/mL (≈ 0.54 µM)
[30]
  MIC: 1.56 µg/mL (≈ 4.33 µM)
Escherichia coli DC 0 [31]
  MIC: 0.391 µg/mL (≈ 1.08 µM)
[32]
  MIC: 1.56 µg/mL (≈ 4.33 µM)
